US20120196918A1, “PREVENTING ISLET INFLAMMATION AND DYSFUNCTION AND MAINTAINING PROPER GLUCOSE LEVELS BY CONTROLLING eIF5A AND ITS HYPUSINATION” (priority 2009, published 2012)

Legend:
[1] = tested on: STZ-treated NOD/Scid-(IL-2Rγ-null) mice; experiment: Multiple low-dose STZ model in immune-deficient NOD/Scid-(IL-2Rγ-null) mice; assay type: in vivo, mouse; details: multiple low-dose STZ (data not shown for si-eIF5A)
Description: To test the role of eIF5A in cytokine-mediated islet dysfunction, efforts were made to identify a mouse model of islet inflammation. The multiple low dose streptozotocin (STZ) model, in which mice are subjected to five daily intraperitoneal doses (at 55 mg/kg body weight) of STZ, is considered to provoke local islet inflammation and cytokine release, in part through the recruitment of CD11c+ dendritic cells that release pro-inflammatory cytokines in the area of STZ-induced cellular destruction (27 and 28).
As noted, low-dose STZ-induced islet dysfunction involves at least two mechanisms: an inflammatory mechanism that is dependent upon cytokine release from immune cells and a direct toxic mechanism on the islet itself. […] Next, islets from 3 C57BL/6J mice per group 24 h after the initial STZ treatment were isolated and pooled and their iNOS content determined by immunoblot. […]
Studies in vivo: Daily STZ injections to groups of 10 week-old C57BL/6J and NOD/Scid-(IL-2Rγ-null) mice proceeded as described previously (30) at a dose of 55 mg STZ per kg mouse weight for 5 days. […] Serum was analyzed using a Luminex system (Millipore) and a mouse cytokine/chemokines Panel 1 mutliplex kit (Millipore).

Nos2 mRNA = experiment: Nuclear export of Nos2 mRNA, subcellular fractionation of cytokine-treated INS-1 cells; assay type: cell-based, rat; details: cytokine-treated; GC7 100 μM overnight or leptomycin B 20 ng/ml 3 h
Description: Subcellular fractionation studies: Nuclear and cytoplasmic fractions of 1×10^6 cytokine-treated INS-1 cells exposed to vehicle, leptomycin B (20 ng/ml), or GC7 (100 μM) were prepared using the method of Dignam, et al. (76). Total RNA was isolated from nuclear and cytoplasmic fractions using the RNeasy® RNA isolation kit (Qiagen).
Quantitative RT-PCR: Five micrograms of total RNA from islets or INS-1 cells were reverse-transcribed as detailed previously (77). cDNA was subjected to quantitative PCR using SYBR Green-based technology and published primers for mouse Ins1/2 pre-mRNA (78) and QuantiTech® primers (Qiagen) for all other mouse genes. The Assay on Demand® kit (Applied Biosystems) was used to amplify rat genes in INS-1 cells and human genes in human islets. Thermal cycling was performed according to manufacturer's instructions, and the identity of each PCR product was verified by automated sequencing. All samples were corrected for total input RNA as quantitated by an Experion® (Bio-Rad) bioanalyzer. All data represent the average of triplicate determinations from at least 3 independent experiments.

eIF5A = eIF5A nuclear-to-cytoplasmic translocation in INS-1 cells (immunofluorescence); assay type: cell-based, rat; details: pretreatment, then cytokines 4 h
Description: Given the striking retention of Nos2 transcripts in the absence of eIF5A-Hyp, it was of interest to determine whether the intracellular distribution of eIF5A accounts for its effect on Nos2 nucleo-cytoplasmic shuttling. Immunofluorescence of eIF5A in fixed INS-1 cells, were thus performed. […] Upon treatment of cells with cytokines, there was a shift in the eIF5A distribution pattern from the nucleus to the cytoplasm.
Cytokine and inhibitor incubation studies: For cytokine incubation assays, a 1000× cocktail of cytokines containing 5 μg/ml IL1β, 10 μg/ml TNFα, and 100 μg/ml IFNγ (all prepared in 0.1% BSA in Tris-buffered saline) was applied at 1× final concentration to groups of 50 islets or 1×10^6 INS-1 (832/13) cells for a total of 4 h at 37° C. For GC7 incubation studies, GC7 was prepared at a stock concentration of 125 mM in 10 mM acetic acid and applied to cultures of 50 islets or 1×10^6 INS-1 cells to obtain the final concentrations indicted in the figures. […]
Immunofluorescence: Immunofluorescence of INS-1 cells proceeded essentially as described previously (71), using primary antibodies to eIF5A1 and secondary anti-mouse Alexa-488-conjugated antibody (Invitrogen), or by direct visualization of GFP fusion proteins at 488 nm. […] Quantitation of cytoplasic-to-nuclear ratios of eIF5A staining was performed using Axio-Vision Software, v. […]

Row | Molecule | protection against glucose intolerance [1] | distribution of mRNAs between nuclear and cytoplasmic fractions (Nos2 mRNA) | cytokine-induced translocation of eIF5A (eIF5A)
1 | 5′-AACGGAAUGACUUCCAGCUGA-3′ (siSTABLE modification, further chemistry not given here) [si-eIF5A] | did not protect against glucose intolerance | – | –
2 | NCCCCCCCN=C(N)N [GC7] | – | relative nuclear retention of Nos2 mRNA | failed to induce the nuclear to cytoplasmic translocation of eIF5A
